In one data set the test system is VM46. Nature of the data set: Cell colony formation assay, VM46 cells. The following applies: 72 hours drug exposure. The data set is classed as cell-based. As to the method: (§1) This example provides directions for growing cells and testing compounds of the invention for their effect on the growth of the cells. All cells were purchased from DCIDC Tumor Repository, NCI, NIH.
(§2) Four hundred cells (HCT 116, PC-3, NCI/ADR-RES: human breast cancer cells) or five hundred cells (VM46) were plated in 60 mm Petri dishes containing 2.7 ml of medium (modified McCoy's 5a medium) containing 10% fetal bovine serum and 100 units/ml penicillin and 100 mg/ml streptomycin. The cells were incubated in a CO2 incubator at 37° C. for 5 hours for attachment to the bottom of Petri dishes. Drugs were made fresh in medium at ten times the final concentration, and then 0.3 ml of this stock solution was added to the 2.7 ml of medium in the dish. The cells were then incubated with drugs for 72 hours at 37° C. At the end of the incubation the drug-containing media were decanted, the dishes were rinsed with 4 ml of Hank's Balance Salt Solution (HBSS), 5 ml of fresh medium was added, and the dishes were returned to the incubator for colony formation. The cell colonies were counted using colony counter after incubation for 7 days for HCT116 cells and PC-3 cells and 8 days for VM46 cells, respectively.
(§3) Values of ID50 (the drug concentration producing 50% inhibition of colony formation) may be determined for each tested compound. The directions described in this example may be used in other cells, such as DU-145.

Another data set relates to PC-3. Briefly: Cell colony formation assay, PC-3 cells. The data set is classed as cell-based, human. The following applies: 72 hours drug exposure. Here is the method: as §1, §2, §3
For another data set, the system named is HCT116. Nature of the data set: Cell colony formation assay, HCT116 cells. The data set is classed as cell-based, human. The following applies: 72 hours drug exposure. Here is the method: as §1
as §2, with “The” for “Four hundred cells (HCT 116, PC-3, NCI/ADR-RES: human breast cancer cells) or five hundred cells (VM46) were plated in 60 mm Petri dishes containing 2.7 ml of medium (modified McCoy's 5a medium) containing 10% fetal bovine serum and 100 units/ml penicillin and 100 mg/ml streptomycin. The”

The test system of a further data set is C3H/HeJ mice. The following applies: maximum tolerated dose at day 40, C3H/HeJ mice. As to the method:
This example provides directions for performing in vivo toxicity tests of the compounds of the invention on C3H/HeJ mice.
Acute toxicities of the compounds of this invention are evaluated on C3H/HeJ mice (body weight 18-22 g). The MTD40 (maximum tolerated dose at day 40) values were determined by the standard procedure described by Gad and Chengelis (see, for example, “Acute Toxicology Testing,” 2nd Ed., Shayne O. Gad and Christopher P. Chengelis, pp. 186-195 (Academic Press)). In the consecutive type studies, 2 mice were dosed at low and moderate doses of 40 and 100 mg/kg. If no severe and irreversible toxicity (euthanasia is required) occurs at these doses, a new pair of animals was initiated at 180 mg/kg, which is 1.8 times higher than 100 mg/kg. Sequential dosages (about 3 doses on 3 pairs of animals, i.e. 2 mice for each drug dose) were increased by a factor of 1.8 until severe and irreversible toxicity (euthanasia is required) occurred. Then another pair of animals was initiated at the highest nonlethal dosage, and successive dosages were increased by a factor of 1.15. The result of this exercise was two dosages, one apparently nonlethal and the other lethal if severe and irreversible toxicity occurs and euthanasia is required, separated by a factor of 1.15. Six mice were dosed at each dosage. If no severe and irreversible toxicity occurred at the lower dosage and at least one with severe and irreversible toxicity occurred at the higher dose, then the lower dose was considered to be the MTD. The compounds of this invention were administered to C3H/HeJ mice by intraperitoneal injection. Drug toxicity was evaluated on mice checked daily for 45 days.

The subject of data set [1] is MTG-B mouse mammary Adenocarcinoma. Nature of the data set: In vivo efficacy in C3H/HeJ mice bearing MTG-B tumors. The following applies: for T (Surviving days after treatment of MTG-B mouse mammary Adenocarcinoma In C3H/Hej mice): i.p., control mice survived 6 days; for CD/Taxol: ratio of extra days of survival with compound to extra days of survival with taxol, each compared to control; for T/C %: surviving days treated / surviving days control x 100%, control 6 days. As to the method: This example provides directions for performing in vivo efficacy tests of the compounds of the invention on C3H/HeJ mice bearing MTG-B tumors.
Studies on the compounds of this invention were performed on C3H/HeJ mice bearing […] tumors. […] Treatment was initiated at that time, with the first day of treatment designated as day 0 for calculation and plots. The mice were injected i.p. with thee drug dose levels (⅓, ½, 1×MTD) using both a single injection and the schedule of Q2D×3 (every 2 days for a total of 3 treatments at ⅓ MTD). Control groups of mice bearing 8 mm diameter tumors were treated with vehicle alone. […] When a tumor reached 1.5 g, the mouse bearing the tumor was euthanized. Surviving days measured from day 0 for mice treated with anticancer drugs (T) and surviving days measured from day 0 for control mice (C) were recorded. Tumor growth inhibition values (T/C %) were calculated using the formula T/C %=(surviving days of mice treated with an anticancer drug T/surviving days of control mice C)×100%, as shown in Table II.
The final right-hand column in Table II provides a ratio of the extra days of survival of mice treated with the compounds of the invention (compared to control) to the extra days of survival of mice treated with taxol (compared to control).

`CCC1(OC(=O)COc2ccc(Cl)cc2C)C(=O)OCc2c1cc1n(c2=O)Cc2cc3ccccc3nc2-1` (stereo not shown) [Example 000127, Camptothecin-20-O-ester of 4-chloro-2-methylphenoxyacetic acid]: the “In vitro efficacy: Survival (%) of cells line VM46” value in the data set with VM46 (1 nM) is recorded as 47.33%; with VM46 (10 nM) it was 0%. The “In vitro efficacy: Survival (%) of cells line PC-3” value with PC-3 (1 nM) is 88.97%; in the data set on PC-3 (5 nM), 31.46%. For the same compound, the “In Vitro Efficacy: Survival (%) of HCT116” value in the data set with HCT116 (1 nM) stood at 86.48%; with HCT116 (10 nM), 0%; in the data set on HCT116 (100 nM), 0%. Besides, the “In Vivo Toxicity MTD40 (ip, mg/kg) in C3H/Hej Mice” value in the data set with C3H/HeJ mice is over 150 mg/kg. Besides, in data set [1], the “T (Surviving days after treatment of MTG-B mouse mammary Adenocarcinoma In C3H/Hej mice)” value was found to be 13 days. Further, in data set [1], the CD/Taxol was 2.3. This compound registered a T/C % in data set [1] of 217%.
Turning to `CCC1(OC(=O)COc2ccc3c(C)c(Cl)c(=O)oc3c2)C(=O)OCc2c1cc1n(c2=O)Cc2cc3ccccc3nc2-1` (stereo not shown) [Example 000129], the figures for the “In vitro efficacy: Survival (%) of cells line VM46” value in the data set with VM46 (1 nM) and in the data set with VM46 (10 nM) were 28.15% and 0%, respectively. Moreover, the “In vitro efficacy: Survival (%) of cells line PC-3” value with PC-3 (1 nM) was found to be 88.04%; with PC-3 (5 nM), 10.31%. Further, the entries for the “In Vitro Efficacy: Survival (%) of HCT116” value in the data set with HCT116 (1 nM), in the data set with HCT116 (10 nM) and with HCT116 (100 nM) were 74.73%, 0% and 0%, respectively. For the same compound, the “In Vivo Toxicity MTD40 (ip, mg/kg) in C3H/Hej Mice” value in the data set on C3H/HeJ mice came out at 75 mg/kg. For the same compound, the “T (Surviving days after treatment of MTG-B mouse mammary Adenocarcinoma In C3H/Hej mice)” value in data set [1] was 12 days. For the same compound, in data set [1], the CD/Taxol is on record as 2.0. In data set [1], this compound yielded a T/C % of 200%.
As for `CCC1(OC(=O)COc2ccc3ccccc3c2)C(=O)OCc2c1cc1n(c2=O)Cc2cc3ccccc3nc2-1` (stereo not shown) [Example 000224, Camptothecin-20-O-ester of 2-napthoxyacetic acid], the “In vitro efficacy: Survival (%) of cells line VM46” value with VM46 (1 nM) came to 62.69%; with VM46 (10 nM), 0%. The “In vitro efficacy: Survival (%) of cells line PC-3” value is given as 87.34% in the data set with PC-3 (1 nM) and 37.98% with PC-3 (5 nM). The “In Vitro Efficacy: Survival (%) of HCT116” value in the data set with HCT116 (1 nM) is 100%; with HCT116 (10 nM) it was 0%; in the data set with HCT116 (100 nM) it was 0%. Further, the “In Vivo Toxicity MTD40 (ip, mg/kg) in C3H/Hej Mice” value with C3H/HeJ mice is over 150 mg/kg. Also, in data set [1], the “T (Surviving days after treatment of MTG-B mouse mammary Adenocarcinoma In C3H/Hej mice)” value was determined as 7 days. Moreover, the CD/Taxol result in data set [1] was “.3”. In data set [1], this compound came in with a T/C % of 117%.
With `CCC1(OC(=O)COc2ccc(C=O)cc2)C(=O)OCc2c1cc1n(c2=O)Cc2cc3ccccc3nc2-1` (stereo not shown) [Example 000313, Camptothecin-20-O-ester of 4-formylphenoxyacetic acid], the “In vitro efficacy: Survival (%) of cells line VM46” value was 41.58% with VM46 (1 nM) and 0% in the data set with VM46 (10 nM). Further, the “In vitro efficacy: Survival (%) of cells line PC-3” value in the data set on PC-3 (1 nM) was 89.51%; in the data set with PC-3 (5 nM), 21.16%. Further, the “In Vitro Efficacy: Survival (%) of HCT116” value in the data set on HCT116 (1 nM) amounted to 100%; in the data set on HCT116 (10 nM), 0%; with HCT116 (100 nM), 0%. Moreover, in the data set on C3H/HeJ mice, the “In Vivo Toxicity MTD40 (ip, mg/kg) in C3H/Hej Mice” value was over 150 mg/kg. The “T (Surviving days after treatment of MTG-B mouse mammary Adenocarcinoma In C3H/Hej mice)” value in data set [1] is recorded as 9 days. In data set [1], the CD/Taxol is on record as 1.0. This compound gave a T/C % in data set [1] of 150%.
Consider `CC[C@@]1(OC(=O)COc2ccc(Br)cc2)C(=O)OCc2c1cc1n(c2=O)Cc2cc3ccccc3nc2-1` [Example 000315, Camptothecin-20-Oester of 4-bromophenoxyacetic acid], for which the “In vitro efficacy: Survival (%) of cells line VM46” value worked out at 64.37% in the data set with VM46 (1 nM) and 0% in the data set on VM46 (10 nM). Besides, the “In vitro efficacy: Survival (%) of cells line PC-3” value with PC-3 (1 nM) came to 87.38%; with PC-3 (5 nM) it was 22.24%. In addition, the “In Vitro Efficacy: Survival (%) of HCT116” value with HCT116 (1 nM) is recorded as 100%; in the data set on HCT116 (10 nM) it was 0%; in the data set with HCT116 (100 nM), 0%. Further, the “In Vivo Toxicity MTD40 (ip, mg/kg) in C3H/Hej Mice” value with C3H/HeJ mice is over 150 mg/kg. Besides, the “T (Surviving days after treatment of MTG-B mouse mammary Adenocarcinoma In C3H/Hej mice)” value in data set [1] stood at 18 days. Also, the CD/Taxol in data set [1] came to 4. The compound also registered a T/C % in data set [1] of 300%.
For the compound `CCC1(OC(=O)COc2c(F)c(F)c(F)c(F)c2F)C(=O)OCc2c1cc1n(c2=O)Cc2cc3ccccc3nc2-1` (stereo not shown) [Example 000410, Camptothecin-20-O-ester of 2,3,4,5,6-pentafluorophenoxyacetic acid], the “In vitro efficacy: Survival (%) of cells line VM46” value in the data set on VM46 (1 nM) worked out at 68.75%; in the data set on VM46 (10 nM), 0%. Further, the “In vitro efficacy: Survival (%) of cells line PC-3” value was found to be 93.31% with PC-3 (1 nM) and 23.33% in the data set on PC-3 (5 nM). For the same compound, the “In Vitro Efficacy: Survival (%) of HCT116” value came to 88.96% in the data set with HCT116 (1 nM), 0% with HCT116 (10 nM) and 0% in the data set on HCT116 (100 nM). For the same compound, the “In Vivo Toxicity MTD40 (ip, mg/kg) in C3H/Hej Mice” value in the data set with C3H/HeJ mice is listed as 45 mg/kg. Besides, in data set [1], the “T (Surviving days after treatment of MTG-B mouse mammary Adenocarcinoma In C3H/Hej mice)” value was 12 days. In data set [1], the CD/Taxol amounted to 2.0. In addition, the T/C % in data set [1] was 200%.
As for `CCC1(OC(=O)COc2ccc(OCc3ccccc3)cc2)C(=O)OCc2c1cc1n(c2=O)Cc2cc3ccccc3nc2-1` (stereo not shown) [Example 000425, Camptothecin-20-O-ester of 4-benzyloxyphenoxyacetic acid], the “In vitro efficacy: Survival (%) of cells line VM46” value in the data set on VM46 (1 nM) is 80.46%; with VM46 (10 nM) it was 0%. Also, the “In vitro efficacy: Survival (%) of cells line PC-3” value is 99.28% with PC-3 (1 nM) and 71.61% with PC-3 (5 nM). Besides, the results for the “In Vitro Efficacy: Survival (%) of HCT116” value in the data set on HCT116 (1 nM), in the data set on HCT116 (10 nM) and in the data set on HCT116 (100 nM) were 100%, 0% and 0%, respectively. Also, the “In Vivo Toxicity MTD40 (ip, mg/kg) in C3H/Hej Mice” value in the data set with C3H/HeJ mice is under 150 mg/kg.
In the case of `CCC1(OC(=O)COc2cccc(CBr)c2)C(=O)OCc2c1cc1n(c2=O)Cc2cc3ccccc3nc2-1` (stereo not shown) [Example 000501, Camptothecin-20-O-ester of 3-bromomethylphenoxyacetic acid], the “In vitro efficacy: Survival (%) of cells line VM46” value is reported as 86.60% with VM46 (1 nM) and 0% in the data set with VM46 (10 nM). The figures for the “In vitro efficacy: Survival (%) of cells line PC-3” value with PC-3 (1 nM) and with PC-3 (5 nM) were 96.02% and 41.77%, respectively. The “In Vitro Efficacy: Survival (%) of HCT116” value with HCT116 (1 nM) stood at 100%; in the data set with HCT116 (10 nM), 0%; in the data set on HCT116 (100 nM) it was 0%. For the same compound, the “In Vivo Toxicity MTD40 (ip, mg/kg) in C3H/Hej Mice” value with C3H/HeJ mice is under 150 mg/kg.

The record behind these values is patent USRE39707E1, “Camptothecin derivatives” (Catholic Healthcare West, priority 2001, dated 2007).
